Structures are written as SMILES.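 Results reflect a 48-hour exposure of cells in 96-well plates to compound at five concentrations. Here, GI50 denotes the concentration required for 50% inhibition of growth. TGI is the concentration that stops growth completely.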

The first assay deals with SF-295 CNS. As to the kind of experiment: NCI anticancer screen, dose series, 48 h.
Regarding `O=C1Nc2ccccc2/C1=C/C(=O)c1coc2c1C(=O)c1ccccc1C2=O`, the GI50 is > 100 µM and the TGI is > 100 µM.
Regarding `Nc1c(C(=O)c2cccc(-c3ccncc3)c2)cnn1-c1ccc(F)cc1F`, the GI50 is 8.36 µM and the TGI is > 25 µM.
On the same counts, the results for `C=C1C(=O)O[C@H]2[C@H]1CC/C(COC(=O)NCc1ccc(Cn3c(=O)sn(CCCl)c3=O)cc1)=C\CC[C@@]1(C)O[C@@H]21` are 16.4 µM and 30.3 µM.

In a further assay the test system is HCT-15 colon. As to the kind of experiment: NCI anticancer screen, dose series, 48 h.
`O=C1Nc2ccccc2/C1=C/C(=O)c1coc2c1C(=O)c1ccccc1C2=O`: the GI50 was > 100 µM and the TGI was > 100 µM.
For `Nc1c(C(=O)c2cccc(-c3ccncc3)c2)cnn1-c1ccc(F)cc1F`, the GI50 is 2.19 µM and the TGI is > 25 µM.
On to `C=C1C(=O)O[C@H]2[C@H]1CC/C(COC(=O)NCc1ccc(Cn3c(=O)sn(CCCl)c3=O)cc1)=C\CC[C@@]1(C)O[C@@H]21`, for which the GI50 is 1.85 µM and the TGI came to 3.82 µM.

The next assay relates to LOX IMVI melanoma. Briefly: NCI anticancer screen, dose series, 48 h.
On to `O=C1Nc2ccccc2/C1=C/C(=O)c1coc2c1C(=O)c1ccccc1C2=O`, for which the GI50 was > 100 µM and the TGI was > 100 µM.
As for `Nc1c(C(=O)c2cccc(-c3ccncc3)c2)cnn1-c1ccc(F)cc1F`, the GI50 is 14.3 µM and the TGI was > 25 µM.
For `C=C1C(=O)O[C@H]2[C@H]1CC/C(COC(=O)NCc1ccc(Cn3c(=O)sn(CCCl)c3=O)cc1)=C\CC[C@@]1(C)O[C@@H]21`, the GI50 was 1.69 µM and the TGI is 3.12 µM.

The test system of another assay is PC-3 prostate. As to the kind of experiment: NCI anticancer screen, dose series, 48 h.
`O=C1Nc2ccccc2/C1=C/C(=O)c1coc2c1C(=O)c1ccccc1C2=O`: the GI50 was > 100 µM and the TGI was > 100 µM.
For the molecule `Nc1c(C(=O)c2cccc(-c3ccncc3)c2)cnn1-c1ccc(F)cc1F`, the GI50 was 4.83 µM and the TGI is > 25 µM.
In the case of `C=C1C(=O)O[C@H]2[C@H]1CC/C(COC(=O)NCc1ccc(Cn3c(=O)sn(CCCl)c3=O)cc1)=C\CC[C@@]1(C)O[C@@H]21`, the GI50 is 8.09 µM and the TGI amounted to 21 µM.

In the next assay the test system is KM12 colon. Briefly: NCI anticancer screen, dose series, 48 h.
For the molecule `O=C1Nc2ccccc2/C1=C/C(=O)c1coc2c1C(=O)c1ccccc1C2=O`, the GI50 was > 100 µM and the TGI was > 100 µM.
Take `Nc1c(C(=O)c2cccc(-c3ccncc3)c2)cnn1-c1ccc(F)cc1F`: the GI50 is 2.05 µM and the TGI was > 25 µM.
With `C=C1C(=O)O[C@H]2[C@H]1CC/C(COC(=O)NCc1ccc(Cn3c(=O)sn(CCCl)c3=O)cc1)=C\CC[C@@]1(C)O[C@@H]21`, the GI50 was 13.4 µM and the TGI worked out at 27.7 µM.

A further assay relates to HL-60(TB) leukemia. Briefly: NCI anticancer screen, dose series, 48 h.
Take `O=C1Nc2ccccc2/C1=C/C(=O)c1coc2c1C(=O)c1ccccc1C2=O`: the GI50 was > 100 µM and the TGI was > 100 µM.
As to `Nc1c(C(=O)c2cccc(-c3ccncc3)c2)cnn1-c1ccc(F)cc1F`, the GI50 was 5.57 µM and the TGI was > 25 µM.
On the same counts, the results for `C=C1C(=O)O[C@H]2[C@H]1CC/C(COC(=O)NCc1ccc(Cn3c(=O)sn(CCCl)c3=O)cc1)=C\CC[C@@]1(C)O[C@@H]21` are 1.92 µM and 4.96 µM.

Another assay has as its system CCRF-CEM leukemia. As to the kind of experiment: NCI anticancer screen, dose series, 48 h.
On to `O=C1Nc2ccccc2/C1=C/C(=O)c1coc2c1C(=O)c1ccccc1C2=O`, for which the GI50 is > 100 µM and the TGI is > 100 µM.
In the case of `Nc1c(C(=O)c2cccc(-c3ccncc3)c2)cnn1-c1ccc(F)cc1F`, the GI50 was 17 µM and the TGI was > 25 µM.
On the same counts, the results for `C=C1C(=O)O[C@H]2[C@H]1CC/C(COC(=O)NCc1ccc(Cn3c(=O)sn(CCCl)c3=O)cc1)=C\CC[C@@]1(C)O[C@@H]21` are 1.73 µM and 7 µM.

The subject of a further assay is HT29 colon. Briefly: NCI anticancer screen, dose series, 48 h.
With `O=C1Nc2ccccc2/C1=C/C(=O)c1coc2c1C(=O)c1ccccc1C2=O`, the GI50 is > 100 µM and the TGI was > 100 µM.
`Nc1c(C(=O)c2cccc(-c3ccncc3)c2)cnn1-c1ccc(F)cc1F`: the GI50 is 2.48 µM and the TGI was > 25 µM.
For `C=C1C(=O)O[C@H]2[C@H]1CC/C(COC(=O)NCc1ccc(Cn3c(=O)sn(CCCl)c3=O)cc1)=C\CC[C@@]1(C)O[C@@H]21`, the GI50 is 2.16 µM and the TGI was found to be 4.77 µM.

A further assay has as its system MCF7 breast. As to the kind of experiment: NCI anticancer screen, dose series, 48 h.
As to `O=C1Nc2ccccc2/C1=C/C(=O)c1coc2c1C(=O)c1ccccc1C2=O`, the GI50 is 74.7 µM and the TGI is > 100 µM.
On the same counts, the results for `Nc1c(C(=O)c2cccc(-c3ccncc3)c2)cnn1-c1ccc(F)cc1F` are 3.08 µM and > 25 µM.
On the same counts, the results for `C=C1C(=O)O[C@H]2[C@H]1CC/C(COC(=O)NCc1ccc(Cn3c(=O)sn(CCCl)c3=O)cc1)=C\CC[C@@]1(C)O[C@@H]21` are 1.91 µM and 4.4 µM.

In the next assay the test system is SF-268 CNS. As to the kind of experiment: NCI anticancer screen, dose series, 48 h.
For the molecule `O=C1Nc2ccccc2/C1=C/C(=O)c1coc2c1C(=O)c1ccccc1C2=O`, the GI50 was > 100 µM and the TGI is > 100 µM.
For the molecule `Nc1c(C(=O)c2cccc(-c3ccncc3)c2)cnn1-c1ccc(F)cc1F`, the GI50 was > 19.7 µM and the TGI is > 25 µM.
As for `C=C1C(=O)O[C@H]2[C@H]1CC/C(COC(=O)NCc1ccc(Cn3c(=O)sn(CCCl)c3=O)cc1)=C\CC[C@@]1(C)O[C@@H]21`, the GI50 was 3.73 µM and the TGI was 14.6 µM.

Source of the values: PubChem BioAssay (NCI).
